The record followed here is patent US20110046108A1, “PYRIMIDINE DERIVATIVES” (AstraZeneca AB, priority 2006, published 2011).

As usually defined, the IC50 is the midpoint of a concentration-inhibition curve.

In one experiment the target is T1, EphB4 (Homo sapiens, UniProt P54760).
T1 construct: to generate full-length EphB4 containing a Myc-His tag at the C-terminus; expressed in transfected cells; host or cells: CHO-K1 (EphB4-CHO)
The experiment in a line: In vitro EphB4 cell assay (Assay B, EphB4 phosphorylation ELISA in EphB4-CHO cells). It is filed as cell-based. In general terms: In an ELISA, binding on a coated surface is turned into a signal by an enzyme label.

In the next experiment the target is T2, recombinant EphB4 (Homo sapiens, UniProt P54760).
T2 construct: recombinant active EphB4 (amino acids 563-987; Swiss-Prot Acc; No. P54760); purchased ProQinase GmbH 0178-0000-3
T2 sequence (P54760 563-987): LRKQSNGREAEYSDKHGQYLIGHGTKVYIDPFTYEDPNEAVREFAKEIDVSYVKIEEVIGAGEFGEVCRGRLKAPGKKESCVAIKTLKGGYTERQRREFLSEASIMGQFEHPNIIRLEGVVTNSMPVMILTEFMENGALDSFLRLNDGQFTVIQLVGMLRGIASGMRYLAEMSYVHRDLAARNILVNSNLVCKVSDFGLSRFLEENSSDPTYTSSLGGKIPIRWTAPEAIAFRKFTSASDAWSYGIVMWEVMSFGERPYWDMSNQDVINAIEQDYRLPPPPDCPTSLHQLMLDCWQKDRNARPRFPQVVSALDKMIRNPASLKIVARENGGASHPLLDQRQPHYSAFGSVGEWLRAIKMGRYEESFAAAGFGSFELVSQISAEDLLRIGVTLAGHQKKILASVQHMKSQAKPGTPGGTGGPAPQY
The experiment in a line: In vitro EphB4 enzyme assay (Assay A, Alphascreen). The format is biochemical. The conditions noted are these: 4 μM ATP. Here is the method: This assay detects inhibitors of EphB4-mediated phosphorylation of a polypeptide substrate using Alphascreen™ luminescence detection technology. Briefly, recombinant EphB4 was incubated with a biotinylated-polypeptide substrate (biotin-poly-GAT) in presence of magnesium-ATP. The reaction was stopped by addition of EDTA, together with streptavidin-coated donor beads which bind the biotin-substrate containing any phosphorylated tyrosine residues. Anti-phosphotyrosine antibodies present on acceptor beads bind to phosphorylated substrate, thus bringing the donor & acceptor beads into close proximity. Subsequent excitation of the donor beads at 680 nm generated singlet oxygen species that interact with a chemiluminescer on the acceptor beads, leading to light emission at 520-620 nm. The signal intensity is directly proportional to the level of substrate phosphorylation and thus inhibition is measured by a decrease in signal.
Test compounds were prepared as 10 mM stock solutions in DMSO (Sigma-Aldrich Company Ltd, Gillingham, Dorset SP8 4XT Catalogue No.154938) and serially diluted with 5% DMSO to give a range of test concentrations at 6× the required final concentration. […]
The resulting assay signal was determined on the Perkin Elmer EnVision plate reader. […]
On the technique in general: Bead proximity is the source of the signal in Alpha formats.

For a further experiment, the target named is T3, c-Src kinase (Homo sapiens, UniProt P12931).
T3 construct: purchased Upstate 14-117
T3 sequence (P12931 whole entry): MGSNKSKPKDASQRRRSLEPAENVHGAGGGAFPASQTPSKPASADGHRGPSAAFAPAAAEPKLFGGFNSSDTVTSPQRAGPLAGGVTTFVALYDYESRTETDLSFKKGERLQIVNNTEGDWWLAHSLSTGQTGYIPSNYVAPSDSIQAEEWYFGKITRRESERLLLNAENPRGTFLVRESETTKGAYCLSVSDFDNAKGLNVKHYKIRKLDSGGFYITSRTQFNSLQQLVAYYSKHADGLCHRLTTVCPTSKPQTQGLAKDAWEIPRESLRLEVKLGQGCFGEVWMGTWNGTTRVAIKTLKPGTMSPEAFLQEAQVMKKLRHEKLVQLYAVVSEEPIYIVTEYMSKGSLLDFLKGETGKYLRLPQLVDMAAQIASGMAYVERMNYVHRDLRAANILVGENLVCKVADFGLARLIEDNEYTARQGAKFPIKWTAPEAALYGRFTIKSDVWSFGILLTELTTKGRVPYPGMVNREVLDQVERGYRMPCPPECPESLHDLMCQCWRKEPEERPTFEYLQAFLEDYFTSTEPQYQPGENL
The experiment in a line: Src in vitro enzyme assay (Assay C, ELISA). The format is biochemical. The note with it: 2.2 μM ATP. Here is the method: The ability of test compounds to inhibit the phosphorylation of a tyrosine containing polypeptide substrate by the enzyme c-Src kinase was assessed using a conventional ELISA assay with a colorimetric endpoint.
Each well of Matrix 384-well plates (Matrix, Brooke Park, Wilmslow, Cheshire, SK9 3LP, UK, Catalogue No. 4311) were coated overnight at 4° C. with 40 μl of 10 ug/ml stock of synthetic polyamino acid pEAY substrate (Sigma-Aldrich Company Ltd, Gillingham, Dorset, SP8 4XT, UK, Catalogue No. P3899) in phosphate buffered saline (PBS). Immediately prior to the assay, the plates were washed with 100 μl/well of PBS containing Tween-20 and then with 50 mM HEPES pH7.4.
Test compounds were prepared as 10 mM stock solutions in DMSO (Sigma-Aldrich Company Ltd, Gillingham, Dorset, SP8 4XT, UK, Catalogue No.154938) and serially diluted with 10% DMSO to give a range of test concentrations at 4× the required final concentration. […]
The plates were washed three times with 100 μl/well of PBS-Tween20 and then 40 μl of a PBS-Tween20 and 0.5% BSA solution containing 4G10-HRP anti-phosphotyrosine antibody (Upstate, Catalogue No 16-105) added to each well. […] The reaction was then stopped with the addition of 20 μl/well 2M sulphuric acid and the absorbances determined at 450 nm using a plate reading spectrophotometer. […]

[1] abbreviates: mean values, Table A, read-out: Mean IC50 (μM) obtained using Assay B.

Like-named read-outs stand apart in the source and are kept apart here.

T1 sequence (P54760 16-987): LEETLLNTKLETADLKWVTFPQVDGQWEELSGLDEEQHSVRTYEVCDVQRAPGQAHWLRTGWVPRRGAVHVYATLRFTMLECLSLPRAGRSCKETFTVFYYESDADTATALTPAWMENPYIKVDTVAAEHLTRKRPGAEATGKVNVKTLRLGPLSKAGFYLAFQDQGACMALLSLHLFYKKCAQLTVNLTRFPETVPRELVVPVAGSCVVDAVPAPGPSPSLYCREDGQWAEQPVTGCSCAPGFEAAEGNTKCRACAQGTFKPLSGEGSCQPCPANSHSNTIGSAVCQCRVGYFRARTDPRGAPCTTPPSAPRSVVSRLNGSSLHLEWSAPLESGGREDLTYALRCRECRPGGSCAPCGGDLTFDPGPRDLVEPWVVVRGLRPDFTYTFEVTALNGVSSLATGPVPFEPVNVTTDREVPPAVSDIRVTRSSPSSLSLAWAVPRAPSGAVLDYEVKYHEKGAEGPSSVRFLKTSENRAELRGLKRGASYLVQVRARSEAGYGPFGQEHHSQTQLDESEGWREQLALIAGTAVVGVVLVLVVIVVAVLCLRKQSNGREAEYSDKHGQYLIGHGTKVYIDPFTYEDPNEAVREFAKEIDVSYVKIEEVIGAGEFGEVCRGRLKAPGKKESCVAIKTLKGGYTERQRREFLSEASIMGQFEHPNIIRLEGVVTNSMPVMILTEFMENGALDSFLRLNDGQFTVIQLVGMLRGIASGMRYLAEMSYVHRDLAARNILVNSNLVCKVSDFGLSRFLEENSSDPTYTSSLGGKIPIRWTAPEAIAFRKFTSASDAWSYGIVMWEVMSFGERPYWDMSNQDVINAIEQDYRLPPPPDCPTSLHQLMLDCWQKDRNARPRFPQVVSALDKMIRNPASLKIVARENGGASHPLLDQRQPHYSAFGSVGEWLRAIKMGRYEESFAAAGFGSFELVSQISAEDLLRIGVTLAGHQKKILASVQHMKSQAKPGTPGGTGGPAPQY

With `COc1cc(Nc2nccc(Nc3cccc4c3OCO4)n2)cc(OC)c1` [Compound 258, N′-benzo[1,3]dioxol-4-yl-N-(3,5-dimethoxyphenyl) pyrimidine-2,4-diamine], the IC50 at EphB4 (setting [1]) was found to be 1.08 µM.
Still for that read-out and setting: for `CC(=O)Nc1cc(Nc2nccc(Nc3cccc4[nH]ncc34)n2)ccc1C` [Compound 293, N-[5-[[4-(1H-indazol-4-ylamino)pyrimidin-2-yl]amino]-2-methyl-phcnyl] acetamide] the value was 0.23 µM; for `N#Cc1cccc(Nc2nccc(N(CCO)c3c(Cl)ccc4c3OCO4)n2)c1` [Compound 241, 3-[[4-[(5-chlorobenzo [1,3]dioxol-4-yl)-(2-hydroxyethyl)amino]pyrimidin-2-yl]amino] benzonitrile], 0.13 µM; for `CS(=O)(=O)Nc1cccc(Nc2nccc(N(CC#N)c3c(Cl)ccc4c3OCO4)n2)c1` [Compound 227], 0.19 µM.
Consider `Clc1ccc2c(c1Nc1ccnc(Nc3ccc4ncsc4c3)n1)OCO2` [Compound 59, N~2~-1,3-benzothiazol-6-yl-N~4~-(5-chloro-1,3-benzodioxol-4-yl)pyrimidine-2,4-diamine], for which the IC50 was determined as 460 nM on recombinant EphB4; 1.25 µM on EphB4 (ephrin-B2 stimulated EphB4 phosphorylation, read-out: IC50 in assay B); 330 nM on c-Src kinase.
Take `CN(c1ccnc(Nc2cccc(NS(C)(=O)=O)c2)n1)c1c(Cl)ccc2c1OCO2` [Compound 219, N-[3-[[4-[(5-chlorobenzo [1,3]dioxol-4-yl)-methyl-amino]pyrimidin-2-yl]amino]phenyl]methane sulfonamide]: the IC50 on EphB4 (setting [1]) was 0.14 µM.
